Reference: the supplement of paper PMC10307832

How the values were obtained:
Test in all cases: relative viability (nuclei count vs DMSO), 5 days (fraction); higher = more cells survive
Tipifarnib + Olaparib = compound: Cn1cncc1[C@@](N)(c1ccc(Cl)cc1)c1ccc2c(c1)c(-c1cccc(Cl)c1)cc(=O)n2C [Tipifarnib] + O=C(c1cc(Cc2n[nH]c(=O)c3ccccc23)ccc1F)N1CCN(C(=O)C2CC2)CC1 [Olaparib] (partner 8 µM)
Procedure, shortened: (§1)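 Medians of duplicate plates are given as relative viability. That measure is the nuclei count in treated wells divided by the count in vehicle wells. Counts were taken on 4× images of lung cancer cell lines in 1536-well plates, 5 days after pin-tool dosing the day after seeding with one drug alone or a fixed anchor-drug dose plus five library-drug doses (not always all listed) in √10 steps.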

Tipifarnib + Palbociclib = compound: Cn1cncc1[C@@](N)(c1ccc(Cl)cc1)c1ccc2c(c1)c(-c1cccc(Cl)c1)cc(=O)n2C [Tipifarnib] + CC(=O)c1c(C)c2cnc(Nc3ccc(N4CCNCC4)cn3)nc2n(C2CCCC2)c1=O [Palbociclib] (partner 0.5 µM)
Procedure, shortened: as §1

Tipifarnib + Alpelisib = compound: Cn1cncc1[C@@](N)(c1ccc(Cl)cc1)c1ccc2c(c1)c(-c1cccc(Cl)c1)cc(=O)n2C [Tipifarnib] + Cc1nc(NC(=O)N2CCC[C@H]2C(N)=O)sc1-c1ccnc(C(C)(C)C(F)(F)F)c1 [Alpelisib] (partner 2 µM)
Procedure, shortened: as §1

Tipifarnib + Pemetrexed = compound: Cn1cncc1[C@@](N)(c1ccc(Cl)cc1)c1ccc2c(c1)c(-c1cccc(Cl)c1)cc(=O)n2C [Tipifarnib] + Nc1nc2[nH]cc(CCc3ccc(C(=O)N[C@@H](CCC(=O)O)C(=O)O)cc3)c2c(=O)[nH]1 [Pemetrexed] (partner 0.2 µM)
Procedure, shortened: as §1

| Cell Line | relative viability (Tipifarnib + Olaparib; first compound 0.01 µM) | relative viability (Tipifarnib + Olaparib; first compound 0.03162 µM) | relative viability (Tipifarnib + Olaparib; first compound 0.1 µM) | relative viability (Tipifarnib + Olaparib; first compound 0.3162 µM) | relative viability (Tipifarnib + Olaparib; first compound 1 µM) | relative viability (Tipifarnib + Palbociclib; first compound 0.01 µM) | relative viability (Tipifarnib + Palbociclib; first compound 0.03162 µM) | relative viability (Tipifarnib + Palbociclib; first compound 0.1 µM) | relative viability (Tipifarnib + Palbociclib; first compound 0.3162 µM) | relative viability (Tipifarnib + Palbociclib; first compound 1 µM) | relative viability (Tipifarnib + Alpelisib; first compound 0.01 µM) | relative viability (Tipifarnib + Alpelisib; first compound 0.03162 µM) | relative viability (Tipifarnib + Alpelisib; first compound 0.1 µM) | relative viability (Tipifarnib + Alpelisib; first compound 0.3162 µM) | relative viability (Tipifarnib + Alpelisib; first compound 1 µM) | relative viability (Tipifarnib + Pemetrexed; first compound 0.01 µM) | relative viability (Tipifarnib + Pemetrexed; first compound 0.03162 µM) | relative viability (Tipifarnib + Pemetrexed; first compound 0.1 µM) | relative viability (Tipifarnib + Pemetrexed; first compound 0.3162 µM) | relative viability (Tipifarnib + Pemetrexed; first compound 1 µM) |
| --- | --- | --- | --- | --- | --- | --- | --- | --- | --- | --- | --- | --- | --- | --- | --- | --- | --- | --- | --- | --- |
| EKVX | 0.881 | 0.829 | 0.682 | 0.586 | 0.521 | 0.396 | 0.362 | 0.35 | 0.281 | 0.284 | 0.895 | 0.883 | 0.83 | 0.595 | 0.652 | 0.433 | 0.396 | 0.39 | 0.411 | 0.289 |
| EMC-BAC-2 | 0.502 | 0.441 | 0.482 | 0.427 | 0.429 | 0.501 | 0.469 | 0.494 | 0.463 | 0.465 | 0.741 | 0.665 | 0.684 | 0.651 | 0.566 | 0.412 | 0.434 | 0.45 | 0.462 | 0.469 |
| EPLC-272H | 0.86 | 0.481 | 0.578 | 0.35 | 0.222 | 0.358 | 0.265 | 0.328 | 0.298 | 0.263 | 1.06 | 0.823 | 0.951 | 0.613 | 0.46 | 0.248 | 0.364 | 0.358 | 0.35 | 0.252 |
| H3255 | 0.606 | 0.509 | 0.457 | 0.397 | 0.402 | 0.331 | 0.276 | 0.27 | 0.287 | 0.258 | 0.759 | 0.734 | 0.627 | 0.482 | 0.497 | 0.674 | 0.543 | 0.562 | 0.541 | 0.499 |
| HARA | 0.842 | 0.865 | 0.762 | 0.996 | 0.76 | 0.32 | 0.32 | 0.238 | 0.217 | 0.265 | 0.924 | 0.792 | 0.781 | 0.662 | 0.653 | 0.23 | 0.32 | 0.293 | 0.297 | 0.249 |
| HCC-15 | 0.758 | 0.75 | 0.793 | 0.631 | 0.56 | 0.694 | 0.653 | 0.566 | 0.417 | 0.405 | 0.827 | 0.646 | 0.584 | 0.451 | 0.367 | 0.227 | 0.254 | 0.226 | 0.222 | 0.232 |
| HCC-44 | 0.973 | 0.925 | 0.993 | 0.957 | 0.942 | 0.952 | 0.921 | 0.945 | 0.92 | 0.926 | 0.742 | 0.747 | 0.62 | 0.615 | 0.58 | 0.619 | 0.615 | 0.625 | 0.589 | 0.604 |
| HCC-78 | 0.93 | 1.01 | 0.863 | 0.758 | 0.636 | 0.478 | 0.54 | 0.558 | 0.454 | 0.456 | 0.41 | 0.314 | 0.317 | 0.271 | 0.292 | 0.934 | 0.941 | 0.91 | 0.906 | 0.933 |
